The source of these data is patent US5133975A, “Method for in vivo inactivation of blood borne HIV virus using a mixture of ozone and oxygen” (RJH and Company, Inc., priority 1989, dated 1992).

Molecules are shown by their SMILES.

One data set concerns coliform. Particulars: in vitro, pure ozone; cited from earlier work.
The test system of a further data set is S. aureus. Particulars: in vitro, pure ozone; cited from earlier work.
The subject of another data set is Aeromonas hydrophilia. The settings on record: in vitro, pure ozone; cited from earlier work.
The next data set has as its system enteroviruses. The settings on record: in vitro, pure ozone; cited from earlier work.
A further data set concerns poliovirus 2. Particulars: in vitro, pure ozone; cited from earlier work.
The test system of another data set is coxsachie. Particulars: in vitro, pure ozone; cited from earlier work.
For a further data set, the system named is mice. Particulars: 3 hours of inhalation; cited from earlier work.
In another data set the test system is human subjects. The settings on record: 0.24 ppm for two hours; cited from earlier work.
The subject of the next data set is mammals. Particulars: overdoses of pure O3; cited from earlier work.
A further data set concerns herpes simplex. Briefly: remission of herpes lesions in patient (Example 3).

For the compound `O=[O+][O-]` [ozone], in the data set on coliform, the inactivation of coliform entry is recorded as “inactivates”. Further, the “inactivation of S. aureus” value in the data set on S. aureus is listed as “inactivates”. Moreover, the “inactivation of Aeromonas hydrophilia” value in the data set with Aeromonas hydrophilia is listed as “inactivates”. In addition, in the data set on enteroviruses, the inactivation of enteroviruses entry is “inactivates”. Also, the “inactivation of poliovirus 2” value in the data set with poliovirus 2 is on record as “inactivates”. Further, the inactivation of coxsachie entry with coxsachie was “inactivates”. Besides, in the data set on mice, the LD50 was 22 ppm. In the data set with human subjects, the cell functions entry was “inhibition of certain cell functions”, the enzyme activities result was “wide fluctuations in enzyme activities” and the respiratory capacity entry is listed as “drops in respiratory capacity”. For the same compound, the signs of overdose entry in the data set with mammals is “pulmonary edema and hemorrhaging”.

With `Nc1nc2c(ncn2COCCO)c(=O)[nH]1` [acyclovir], the “herpes lesions during treatment with acyclovir” value with herpes simplex is “had persisted”.
